Results reported in patent publication US6762052B1, “DNA sequence encoding flavin-containing monooxygenase” (priority 1993, dated 2004).

What was measured:
Human Liver Microsomes = assay: in vitro
lys158-HFMO3-MBP = biological target: T1, lys158-HFMO3-MBP (Homo sapiens, UniProt P31513, E158K); assay: Substrate oxygenation by lys158-HFMO3-MBP fusion protein, HPLC; settings: lys158-HFMO3-MBP, N-oxygenation
T1 sequence (P31513 2-532 E158K): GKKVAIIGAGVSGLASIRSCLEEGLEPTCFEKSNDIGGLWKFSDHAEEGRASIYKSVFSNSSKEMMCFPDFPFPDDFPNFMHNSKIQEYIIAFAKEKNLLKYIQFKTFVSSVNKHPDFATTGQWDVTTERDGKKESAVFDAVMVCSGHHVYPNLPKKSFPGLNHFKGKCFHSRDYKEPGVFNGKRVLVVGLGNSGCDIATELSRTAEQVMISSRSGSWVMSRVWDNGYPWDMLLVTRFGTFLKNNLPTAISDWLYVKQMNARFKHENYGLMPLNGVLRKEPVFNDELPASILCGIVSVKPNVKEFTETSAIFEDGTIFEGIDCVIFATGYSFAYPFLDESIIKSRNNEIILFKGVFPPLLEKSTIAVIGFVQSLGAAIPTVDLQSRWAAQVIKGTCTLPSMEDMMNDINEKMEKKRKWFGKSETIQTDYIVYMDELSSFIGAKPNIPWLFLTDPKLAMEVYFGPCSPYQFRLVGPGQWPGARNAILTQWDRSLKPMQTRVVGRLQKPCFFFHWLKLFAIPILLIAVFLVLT
Procedure: For HFMO3-MBP assay, all HFMO3-MBP incubations were done as follows: Into a test tube was added DETAPAC (1.2 mM, final concentration for a 250 μl reaction) followed by the addition of 60 μl NADPH generating system (0.4 mM NADP, 0.4 mM glucose-6-phosphate, and 20 μl of a 50 units mI^−1 glucose-6-phosphate dehydrogenase). The tube was chilled on ice and buffer and enzyme were added as described below for individual experiments to give a volume of 240 μl. The incubation was initiated by the addition of 5-DTP (10 μl of 5 mM) and placed in a shaking water bath at 37° C. for 10 min (unless specified otherwise). The incubation was stopped by the addition of 1.0 ml of ice-cold CH2Cl2. Following the addition of sodium carbonate (approx. 20 mg), the culture tube was vortexed, centrifuged (2000×g, 10 min), and the organic layer was removed and transferred to a 1.5 ml microfuge tube. The organic solvent was evaporated under a stream of Ar(g) to dryness and the residue was taken up in MeOH (300 μl) for determination HPLC analysis.
Data was analyzed with a Hitachi D-2500 integrator.
MTS-oxygenation assays were carried out under the same buffer, temperature, time and volume conditions, as for the N-oxygenation assays. The reactions were initiated upon addition of 10 μl of a 5 mM solution of MTS. The reaction was quenched with the addition of 700 μl of 80% CH3CN:20% hexane then 20 mg NaCl(s) and vortexed vigorously for 10 sec. The quenched reactions were then centrifuged briefly to separate the phases. The organic layer, containing product and substrate, was removed and used directly for HPLC analysis.
All other instruments used were the same as above for the N-oxygenation reactions. Conditions for elution were 50% CH3CN/H2O (v:v) with a flow rate gradient as follows: 1.5 ml min^−1 from 0 to 4 min., 1.5-2.5 ml min^−1 from 4 to 5 min, 2.5 ml min^−1 from 5 to 15 min.
Trimethylamine is commonly ingested in foodstuffs or it is available in the diet of humans from choline and other sources. Trimethylamine (TMA) is exclusively eliminated in humans by metabolism to trimethylamine N-oxide (TMANO). […] Thus, urinary TMANO formation provides a simple, reliable and direct assay of FMO3 activity in adult humans. Analysis of TMA to TMANO ratios provides a direct means of phenotyping adult humans for FMO3 activity. Phenotyping FMO3 activity in humans would provide a simple means of evaluating the relationship between the presence of FMO3 and various disease conditions. […]

CN(C)CCCCCN1c2ccccc2Sc2ccc(C(F)(F)F)cc21 [Compound 5]
Km (Human Liver Microsomes): 6.8 µM | N-oxide formation, Human Liver Microsomes (Human Liver Microsomes): 252.1 ± 38.6 pmol/min/mg of protein | S-oxide formation, Human Liver Microsomes (Human Liver Microsomes): 32.5 ± 33.7 pmol/min/mg of protein | Vmax, Human Liver Microsomes (Human Liver Microsomes): 0.098 nmol/min/mg of protein | Km (lys158-HFMO3-MBP): 78 µM | Vmax (lys158-HFMO3-MBP; Lineweaver-Burke analysis): 1.88 nmole/min/nmol of flavin
